Results: ChEMBL document CHEMBL3525964 (Drug Metab Dispos, 2012)

How the values were obtained:
Plasma [1] = assay: Drug level in human plasma treated with [14C}LY2452473 at 15 mg, po after 4 hrs administered as single dose by HPLC analysis; type: ADME, organism-based; conditions: in vivo
Plasma [2] = assay: Drug level in human plasma treated with [14C}LY2452473 at 15 mg, po after 2 hrs administered as single dose by HPLC analysis; type: ADME, organism-based; conditions: in vivo
[3] = Drug level in urine of human treated with [14C}LY2452473 at 15 mg, po administered as single dose by LC-MS/MS method; type: ADME, organism-based; conditions: in vivo
Plasma [4] = assay: Drug level in human plasma treated with [14C}LY2452473 at 15 mg, po after 1 hr administered as single dose by HPLC analysis; type: ADME, organism-based; conditions: in vivo
Plasma [5] = assay: Drug level in human plasma treated with [14C}LY2452473 at 15 mg, po after 4 hrs administered as single dose by HPLC analysis relative to total radioactivity; type: ADME, organism-based; conditions: in vivo
Plasma [6] = assay: Drug level in plasma of human treated with [14C}LY2452473 at 15 mg, po administered as single dose by LC-MS/MS method; type: ADME, organism-based; conditions: in vivo
Plasma [7] = assay: Drug level in human plasma treated with [14C}LY2452473 at 15 mg, po after 24 hrs administered as single dose by HPLC analysis; type: ADME, organism-based; conditions: in vivo
Plasma [8] = assay: Drug level in human plasma treated with [14C}LY2452473 at 15 mg, po after 8 hrs administered as single dose by HPLC analysis; type: ADME, organism-based; conditions: in vivo
Plasma [9] = assay: Drug level in human plasma treated with [14C}LY2452473 at 15 mg, po after 48 hrs administered as single dose by HPLC analysis; type: ADME, organism-based; conditions: in vivo
[10] = Drug level in feces of human treated with [14C}LY2452473 at 15 mg, po administered as single dose by LC-MS/MS method; type: ADME, organism-based; conditions: in vivo
[11] = Total drug excretion in human treated with [14C}LY2452473 at 15 mg, po administered as single dose by HPLC analysis; type: ADME, organism-based; conditions: in vivo, read-out: Drug excretion
[12] = Drug excretion in urine of human treated with [14C}LY2452473 at 15 mg, po administered as single dose by HPLC analysis; type: ADME, organism-based; conditions: read-out: Drug excretion
[13] = Drug recovery in human feces at 15 mg, po administered as single dose after 0 to 312 hrs by liquid scintillation counting method; type: ADME, organism-based; conditions: in vivo
Homo sapiens [14] = assay: Tmax in human assessed as total radioactivity at 15 mg, po administered as single dose by liquid scintillation counting method; type: ADME, organism-based; conditions: in vivo
Plasma [15] = assay: Drug level in human plasma at 15 mg, po after 48 hrs administered as single dose by HPLC analysis; type: ADME, organism-based; conditions: in vivo, pooled result: one value given for 5 cell lines, strains, targets or settings
Plasma [16] = assay: Drug metabolism in human plasma assessed as isopropyl N-[(2S,3S)-7-cyano-3-hydroxy-4-(2-pyridylmethyl)-2,3-dihydro-1H-cyclopenta[b]indol-2-yl]carbamate formation at 15 mg, po administered as single dose by LC-MS/MS method; type: ADME, organism-based; conditions: in vivo
[17] = Drug metabolism in human urine assessed as (2S)-2-amino-4-(2-pyridylmethyl)-2,3-dihydro-1H-cyclopenta[b]indole-7-carbonitrile formation at 15 mg, po administered as single dose by LC-MS/MS method; type: ADME, organism-based; conditions: in vivo
Homo sapiens [18] = assay: Elimination half life in human assessed as total radioactivity at 15 mg, po administered as single dose by liquid scintillation counting method; type: ADME, organism-based; conditions: in vivo
Plasma [19] = assay: Drug metabolism in human plasma assessed as N-[(2S)-7-cyano-4-(2-pyridylmethyl)-2,3-dihydro-1H-cyclopenta[b]indol-2-yl]acetamide formation at 15 mg, po administered as single dose by LC-MS/MS method; type: ADME, organism-based; conditions: in vivo
[20] = Drug metabolism in human urine assessed as [(1R)-2-hydroxy-1-methyl-ethyl]N-[(2S)-7-cyano-4-(2-pyridylmethyl)-2,3-dihydro-1H-cyclopenta[b]indol-2-yl]carbamate formation at 15 mg, po administered as single dose by LC-MS/MS method; type: ADME, organism-based; conditions: in vivo
[21] = Drug metabolism in human urine assessed as LY2452473 formation at 15 mg, po administered as single dose by LC-MS/MS method; type: ADME, organism-based; conditions: in vivo
Homo sapiens [22] = assay: Drug recovery in human at 15 mg, po administered as single dose after 0 to 312 hrs by liquid scintillation counting method; type: ADME, organism-based; conditions: in vivo
[23] = Drug metabolism in human feces assessed as N-[(2S)-7-cyano-4-(2-pyridylmethyl)-2,3-dihydro-1H-cyclopenta[b]indol-2-yl]acetamide formation at 15 mg, po administered as single dose by LC-MS/MS method; type: ADME, organism-based; conditions: in vivo
Plasma [24] = assay: Drug metabolism in human plasma assessed as [(1R)-2-hydroxy-1-methyl-ethyl]N-[(2S)-7-cyano-4-(2-pyridylmethyl)-2,3-dihydro-1H-cyclopenta[b]indol-2-yl]carbamate formation at 15 mg, po administered as single dose by LC-MS/MS method; type: ADME, organism-based; conditions: in vivo
Plasma [25] = assay: Drug metabolism in human plasma assessed as isopropyl(2S)-7-cyano-3a,8b-dihydroxy-4-(pyridin-2-ylmethyl)-1,2,3,3a,4,8b-hexahydrocyclopenta[b]indol-2-ylcarbamate formation at 15 mg, po administered as single dose by LC-MS/MS method; type: ADME, organism-based; conditions: in vivo
[26] = Drug metabolism in human feces assessed as (2S)-2-amino-4-(2-pyridylmethyl)-2,3-dihydro-1H-cyclopenta[b]indole-7-carbonitrile formation at 15 mg, po administered as single dose by LC-MS/MS method; type: ADME, organism-based; conditions: in vivo
[27] = Drug metabolism in human feces assessed as [(1R)-2-hydroxy-1-methyl-ethyl]N-[(2S)-7-cyano-4-(2-pyridylmethyl)-2,3-dihydro-1H-cyclopenta[b]indol-2-yl]carbamate formation at 15 mg, po administered as single dose by LC-MS/MS method; type: ADME, organism-based; conditions: in vivo
Homo sapiens [28] = assay: AUC (0 to infinity) in human assessed as total radioactivity at 15 mg, po administered as single dose by liquid scintillation counting method; type: ADME, organism-based, Plasma; design: dose 15 mg, route oral, time infinity; conditions: in vivo
[29] = Drug recovery in human urine at 15 mg, po administered as single dose after 0 to 312 hrs by liquid scintillation counting method; type: ADME, organism-based; conditions: in vivo
[30] = Drug metabolism in human feces assessed as isopropyl(2S)-7-cyano-3a,8b-dihydroxy-4-(pyridin-2-ylmethyl)-1,2,3,3a,4,8b-hexahydrocyclopenta[b]indol-2-ylcarbamate formation at 15 mg, po administered as single dose by LC-MS/MS method; type: ADME, organism-based; conditions: in vivo
[31] = Drug metabolism in human feces assessed as isopropyl N-[(2S,3S)-7-cyano-3-hydroxy-4-(2-pyridylmethyl)-2,3-dihydro-1H-cyclopenta[b]indol-2-yl]carbamate formation at 15 mg, po administered as single dose by LC-MS/MS method; type: ADME, organism-based; conditions: in vivo
Plasma [32] = assay: Drug metabolism in human plasma assessed as LY2452473 formation at 15 mg, po administered as single dose by LC-MS/MS method; type: ADME, organism-based; conditions: in vivo
[33] = Drug metabolism in human feces assessed as LY2452473 formation at 15 mg, po administered as single dose by LC-MS/MS method; type: ADME, organism-based; conditions: in vivo
Plasma [34] = assay: Drug level in human plasma at 15 mg, po after 24 hrs administered as single dose by HPLC analysis; type: ADME, organism-based; conditions: in vivo
Plasma [35] = assay: Drug metabolism in human plasma assessed as (2S)-2-amino-4-(2-pyridylmethyl)-2,3-dihydro-1H-cyclopenta[b]indole-7-carbonitrile formation at 15 mg, po administered as single dose by LC-MS/MS method; type: ADME, organism-based; conditions: in vivo
[36] = Drug metabolism in human urine assessed as isopropyl(2S)-7-cyano-3a,8b-dihydroxy-4-(pyridin-2-ylmethyl)-1,2,3,3a,4,8b-hexahydrocyclopenta[b]indol-2-ylcarbamate formation at 15 mg, po administered as single dose by LC-MS/MS method; type: ADME, organism-based; conditions: in vivo
[37] = Drug metabolism in human urine assessed as isopropyl N-[(2S,3S)-7-cyano-3-hydroxy-4-(2-pyridylmethyl)-2,3-dihydro-1H-cyclopenta[b]indol-2-yl]carbamate formation at 15 mg, po administered as single dose by LC-MS/MS method; type: ADME, organism-based; conditions: in vivo
Homo sapiens [38] = assay: AUC (0 to time) in human assessed as total radioactivity at 15 mg, po administered as single dose by liquid scintillation counting method; type: ADME, organism-based, Plasma; conditions: in vivo
[39] = Drug metabolism in human urine assessed as N-[(2S)-7-cyano-4-(2-pyridylmethyl)-2,3-dihydro-1H-cyclopenta[b]indol-2-yl]acetamide formation at 15 mg, po administered as single dose by LC-MS/MS method; type: ADME, organism-based; conditions: in vivo
Homo sapiens [40] = assay: Tlast in human assessed as total radioactivity at 15 mg, po administered as single dose by liquid scintillation counting method; type: ADME, organism-based; conditions: in vivo

For C[C@H](CO)OC(=O)N[C@H]1Cc2c(n(Cc3ccccn3)c3ccc(C#N)cc23)C1, the Drug uptake (Plasma [1]) was 2.2%, the Drug uptake (Plasma [2]) was 0.89% and the Drug metabolism [3] was “metabolite_detected”. For the same compound, the Drug uptake (Plasma [4]) was 0%, the Drug uptake (Plasma [5]) was 2.3% and the Drug metabolism (Plasma [6]) was “metabolite_detected”. The Drug uptake (Plasma [7]) was 0%, the Drug uptake (Plasma [8]) was 6.94% and the Drug uptake (Plasma [9]) was 0%. For the same compound, the Drug metabolism [10] was “metabolite_detected”.

For N#Cc1ccc2c(c1)c1c(n2Cc2ccccn2)C[C@@H](N)C1, the Drug metabolism [3] was “metabolite_detected”, the Drug metabolism (Plasma [6]) was “metabolite_detected” and the dose excreted [11] was 3.39%. For the same compound, the dose excreted [12] was 3.39% and the Drug metabolism [10] was “metabolite_detected”.

For CC(C)OC(=O)N[C@H]1CC2(O)c3cc(C#N)ccc3N(Cc3ccccn3)C2(O)C1 (some centres not stated), the Drug metabolism [3] was “metabolite_detected”, the Drug metabolism (Plasma [6]) was “metabolite_detected” and the Drug metabolism [10] was “metabolite_detected”.

Work on C[C@@H](CO)OC(=O)N[C@H]1Cc2c(n(Cc3ccccn3)c3ccc(C#N)cc23)C1 yielded a Drug uptake (Plasma [1]) of 0.97%, a Drug uptake (Plasma [2]) of 0% and a Drug uptake (Plasma [4]) of 0%. It also gave a Drug uptake (Plasma [7]) of 0%, a Drug uptake (Plasma [8]) of 0% and a Drug uptake (Plasma [9]) of 0%.

For CC(=O)N[C@H]1Cc2c(n(Cc3ccccn3)c3ccc(C#N)cc23)C1, the Drug uptake (Plasma [1]) was 1.74%, the Drug uptake (Plasma [2]) was 0% and the Drug metabolism [3] was “metabolite_detected”. For the same compound, the Drug uptake (Plasma [4]) was 0%, the Drug uptake (Plasma [5]) was 20.6% and the Drug metabolism (Plasma [6]) was “metabolite_detected”. The Drug uptake (Plasma [7]) was 28.48%, the Drug uptake (Plasma [8]) was 10.48% and the Drug uptake (Plasma [9]) was 38.68%. The Drug metabolism [10] was “metabolite_detected”.

For CC(C)OC(=O)N[C@H]1Cc2c(n(Cc3ccccn3)c3ccc(C#N)cc23)[C@H]1O, the Drug uptake (Plasma [1]) was 24.24%, the Drug uptake (Plasma [2]) was 22.58% and the Drug metabolism [3] was “metabolite_detected”. The Drug uptake (Plasma [4]) was 21.9%, the Drug uptake (Plasma [5]) was 34.7% and the Drug metabolism (Plasma [6]) was “metabolite_detected”. The Drug uptake (Plasma [7]) was 37.11%, the Drug uptake (Plasma [8]) was 36.62% and the Drug uptake (Plasma [9]) was 30.05%. The Drug metabolism [10] was “metabolite_detected”.

CC(C)OC(=O)N[C@H]1Cc2c(n(Cc3ccccn3)c3ccc([14C]#N)cc23)C1 showed a Drug recovery [13] of 46.6%, a Tmax (Homo sapiens [14]) of 3 h and a Drug uptake (Plasma [15]) of 96.4%. The Drug metabolism (Plasma [16]) was “metabolite_detected”, the Drug metabolism [17] was “metabolite_detected” and the “beta t1/2” value (Homo sapiens [18]) was 51 h. The Drug metabolism (Plasma [19]) was “metabolite_detected”, the Drug metabolism [20] was “metabolite_detected” and the Drug metabolism [21] was “metabolite_detected”. For the same compound, the Drug recovery (Homo sapiens [22]) was 94.5%, the Drug metabolism [23] was “metabolite_detected” and the Drug metabolism (Plasma [24]) was “metabolite_detected”. The Drug metabolism (Plasma [25]) was “metabolite_detected”, the Drug metabolism [26] was “metabolite_detected” and the Drug metabolism [27] was “metabolite_detected”. The AUC (Homo sapiens [28]) was 7750 ng·h/mL, the Drug recovery [29] was 47.9% and the Drug metabolism [30] was “metabolite_detected”. For the same compound, the Drug metabolism [31] was “metabolite_detected”, the Drug metabolism (Plasma [32]) was “metabolite_detected” and the Drug metabolism [33] was “metabolite_detected”. For the same compound, the Drug uptake (Plasma [34]) was 94.41%, the Drug metabolism (Plasma [35]) was “metabolite_detected” and the Drug metabolism [36] was “metabolite_detected”. The Drug metabolism [37] was “metabolite_detected”, the AUCt (Homo sapiens [38]) was 7210 ng·h/mL and the Drug metabolism [39] was “metabolite_detected”. For the same compound, the Tlast (Homo sapiens [40]) was 204 h.
